Structures can show the parent of a compound that is named as a salt.
How the values were obtained:
Type in all cases: in vivo
Erysimum cheiranthoides = experiment: Post-emergence tests/outdoors (Example D, USA); details: 42 g a.i./ha to 45 g a.i./ha, post-emergence (autumn), outdoors, winter wheat, with surface-active substances (SAS), 10 tests
Description: (§1) The active compound was applied by the post-emergence method (spring) across the area by the spray method, with an average droplet size. To produce a useful preparation of active compound, the active compound was formulated as 70 WP or 70 WG (70% w/w water-dispersible powder or granules) and applied with customary amounts of water. To assess the crop compatibility, from 1 to 8 weeks after the treatment, plant growth inhibitions or […] of the leaf area were assessed in % damage in comparison to the development of the untreated control. At different intervals after the treatment, the herbicidal activity was assessed as % reduction in comparison to the untreated control, based on the weed development. The figures denote: 0%=no damage of the crops or no herbicidal effect, 100%=total destruction of the crops or the weeds. Post-emergence Tests/outdoors The sodium salt of the compound of the formula (I) was tested under outdoor conditions in the main cultivation areas of winter wheat in the USA (Pacific Northwest, North Central Area, Central Plains) against economically important weeds. The design, the practice and the evaluation of the experiments corresponded to Example C. The active compound was applied in autumn. Wetting of the plants was improved by addition of commercial surface-active substances (SAS) in the concentrations recommended by the respective manufacturer.

Thlaspi arvense = experiment: Post-emergence tests/outdoors (Example D, USA); details: 42 g a.i./ha to 45 g a.i./ha, post-emergence (autumn), outdoors, winter wheat, with surface-active substances (SAS), 7 tests
Description: as §1

Bromus secalinus = experiment: Post-emergence tests/outdoors (Example D, USA); details: 42 g a.i./ha to 45 g a.i./ha, post-emergence (autumn), outdoors, winter wheat, with surface-active substances (SAS), 24 tests
Description: as §1

Bromus tectorum = experiment: Post-emergence tests/outdoors (Example D, USA); details: 42 g a.i./ha to 45 g a.i./ha, post-emergence (autumn), outdoors, winter wheat, with surface-active substances (SAS), 37 tests
Description: as §1

Sinapis arvensis = experiment: Post emergence tests/outdoors (Example C, Germany and France); details: 42 g of a.i./ha to 45 g of a.i./ha, post-emergence (spring), outdoors, winter wheat, 70 WP or 70 WG, 4 tests
Description: (§2) Post Emergence Tests/outdoors Under outdoor conditions, the sodium salt of the compound of the formula (I) was tested in winter wheat in Germany and France against economically important weeds. The small-plot experiments were carried out on cultivated land under agricultural use, with cultivation and climate conditions which can be considered to be representative for the period of the trial. Areas with particularly extensive weed growth were chosen by way of preference. The active compound was applied by the post-emergence method (spring) across the area by the spray method, with an average droplet size. To produce a useful preparation of active compound, the active compound was formulated as 70 WP or 70 WG (70% w/w water-dispersible powder or granules) and applied with customary amounts of water. To assess the crop compatibility, from 1 to 8 weeks after the treatment, plant growth inhibitions or […] of the leaf area were assessed in % damage in comparison to the development of the untreated control. At different intervals after the treatment, the herbicidal activity was assessed as % reduction in comparison to the untreated control, based on the weed development. The figures denote: 0%=no damage of the crops or no herbicidal effect, 100%=total destruction of the crops or the weeds.

Agropyron repens = experiment: as above; details: 42 g of a.i./ha to 45 g of a.i./ha, post-emergence (spring), outdoors, winter wheat, 70 WP or 70 WG, 83 tests
Description: as §2

Poa annua = experiment: as above; details: 42 g of a.i./ha to 45 g of a.i./ha, post-emergence (spring), outdoors, winter wheat, 70 WP or 70 WG, 5 tests
Description: as §2

Capsella bursa-pastoris = experiment: as above; details: 42 g of a.i./ha to 45 g of a.i./ha, post-emergence (spring), outdoors, winter wheat, 70 WP or 70 WG, 6 tests
Description: as §2

Apera spica-venti = experiment: as above; details: 42 g of a.i./ha to 45 g of a.i./ha, post-emergence (spring), outdoors, winter wheat, 70 WP or 70 WG, 87 tests
Description: as §2

Alopecurus myosuroides = experiment: as above; details: 42 g of a.i./ha to 45 g of a.i./ha, post-emergence (spring), outdoors, winter wheat, 70 WP or 70 WG, 204 tests
Description: as §2

Wheat = experiment: Post-emergence test/greenhouse; details: greenhouse
Description: (§3) Post-emergence Test/greenhouse Solvent: 5 parts by weight of acetone Emulsifier: 1 part by weight of alkylaryl polyglycol ether To produce a suitable preparation of active compound, 1 part by weight of active compound is mixed with the stated amount of solvent, the stated amount of emulsifier is added and the concentrate is diluted with water to the desired concentration. Test plants which have a height of 5-15 cm are sprayed with the preparation of active compound such that the particular amounts of active compound desired are applied per unit area. The concentration of the spray liquor is chosen so that the particular amounts of active compound desired are applied in 500 l of water/ha. After three weeks, the degree of damage to the plants is assessed in % damage in comparison to the development of the untreated control. The figures denote: 0%=no effect (like untreated control) 100% total destruction

Alopecurus = experiment: Post-emergence test/greenhouse; details: 60 g ai./ha, greenhouse, after three weeks
Description: as §3

Bromus = experiment: Post-emergence test/greenhouse; details: 60 g ai./ha, greenhouse, after three weeks
Description: as §3

Agropyron = experiment: Post-emergence test/greenhouse; details: 60 g ai./ha, greenhouse, after three weeks
Description: as §3

Avena = experiment: Post-emergence test/greenhouse; details: 60 g ai./ha, greenhouse, after three weeks
Description: as §3

Lolium = experiment: Post-emergence test/greenhouse; details: 60 g ai./ha, greenhouse, after three weeks
Description: as §3

winter wheat = experiment: Post-emergence tests/outdoors (Example D, USA), crop compatibility; details: 42 g a.i./ha to 45 g a.i./ha, post-emergence (autumn), outdoors, with surface-active substances (SAS), 78 tests
Description: as §1

Phalaris paradoxa = experiment: Post-emergence test/outdoors (Example E, California); details: 42 g a.i./ha to 45 g a.i./ha, + SAS, outdoors, irrigation wheat growing area, 8 tests
Phalaris minor = experiment: as above; details: 42 g a.i./ha to 45 g a.i./ha, + SAS, outdoors, irrigation wheat growing area, 2 tests

## CCCOc1nn(C(=O)NS(=O)(=O)c2ccccc2C(=O)OC)c(=O)n1C [(I)-Na-salt, 2-(2-methoxycarbonyl-phenylsulphonylaminocarbonyl)-4-methyl-5-propoxy-2,4-dihydro-3H-1,2,4-triazol-3-one]
Erysimum cheiranthoides
  herbicidal effect (%): 89%
Thlaspi arvense
  herbicidal effect (%): 100%
Bromus secalinus
  herbicidal effect (%): 95%
Bromus tectorum
  herbicidal effect (%): 90%
Sinapis arvensis
  herbicidal effect (%): 100%
Agropyron repens
  herbicidal effect (%): 89%
Poa annua
  herbicidal effect (%): 67%
Capsella bursa-pastoris
  herbicidal effect (%): 100%
Apera spica-venti
  herbicidal effect (%): 94%
Alopecurus myosuroides
  herbicidal effect (%): 91%
Wheat; Wheat, 60 g ai./ha, after three weeks
  degree of damage to the plants (% damage in comparison to the untreated control): 0%
Wheat; sodium salt of (I) at 60 g/ha
  compatibility with crop plants (wheat), in words: very good compatibility
Alopecurus
  degree of damage to the plants (% damage in comparison to the untreated control): 90%
Bromus
  degree of damage to the plants (% damage in comparison to the untreated control): 95%
Agropyron
  degree of damage to the plants (% damage in comparison to the untreated control): 100%
Avena
  degree of damage to the plants (% damage in comparison to the untreated control): 80%
Lolium
  degree of damage to the plants (% damage in comparison to the untreated control): 80%
Winter wheat
  Damage to the crop (wheat): 2%
Phalaris paradoxa
  herbicidal effect (%): 99%
Phalaris minor
  herbicidal effect (%): 93%
